Data published in patent US10266545B2, “Coumarin derivative as antiviral agent, pharmaceutical composition thereof, its preparation and use” (I-NOVA MEDICINSKA ISTRAZIVANJA D.O.O., priority 2016, dated 2019).

Columns and labels:
MT-4 cells = assay: Cytotoxicity (MNC, CC50) by MTT assay on uninfected MT-4 cell line; type: cell-based; conditions: for MNC (maximal non-toxic concentration): MT-4 cells, MTT
Procedure: (§1) Cell viability was estimated by a modification of the 3-(4,5-dimethylthiazol-2-yl)-2,5-diphenyltetrazolium bromide (MTT) assay, which is described in the literature reference 9: • 9) T. Mosmann: Rapid colorimetric assay for cellular growth and survival: Application to proliferation and cytotoxicity assays, J. Immunol.
(§2) Both MNC and CC50 values were evaluated simultaneously by morphological and by cell survival criteria. We used MTT-test, determining the living and early apoptotic cells.
(§3) The cells in the suspension culture are growing in clusters. […] Cells were passaged 1:3-1:5 at a density around 6-8·10^4 cells/ml, while the passage was re-suspended repeatedly.
(§4) Cell viability was estimated by a modification of the 3-(4,5-dimethylthiazol-2-yl)-2,5-diphenyltetrazolium bromide (MTT) assay, which is described in the reference 9.
(§5) Since the cell culture we have worked with were suspension, a solution of poly-L-lysine (PLL; Mw=90,000; Sigma-Aldrich, USA) was used for cell attachment on the bottom of a 96-well plate. The plates were treated with 100 μl of PLL at a concentration of 50 μg/ml in phosphate buffered saline (PBS; Sigma-Aldrich, USA), pH=7.4, then incubated for 1 h at room temperature. Followed aspiration of PLL solution and washing the plate twice with sterile PBS. Cells were then seeded at a concentration of 7-8·10^4 cells/100 μl for all experiments. Since the final volume of the culture medium in each well was 200 μl, additional 100 μl of 10% FBS (containing no cells) was added. For the purpose of the experiment, there was no need of forming a dense cell monolayer and after 24 h, when the adherent cells were stick to the plastic, the supernatant was decanted and adding 50 μl of previously prepared dilution of test compound. The well was completed with culture medium (150 μl) to a final volume of 200 μl. The plate was incubated at 37° C. and 5% content of CO2 for 3 days (72 h). Cells grown in medium without the test compound served as a control.
(§6) After 72 h incubation, the medium was replaced with MTT (Sigma Aldrich, USA) and dissolved at a final concentration of 5 mg/ml in serum-free medium, for further 3 h incubation. Then, the MTT-formazan product was solubilised in ethanol/dimethyl sulfoxide (DMSO; Sigma-Aldrich, USA) (1:1, V/V), and the optical density was measured at a test wavelength of 540 nm. Each experiment was performed in triplicate.
(§7) Cell viability was reported as the percentage (%) of viable cells in the wells treated with different concentrations of the test substance compared to the control cells untreated with the substances.

[1] = as above; type: cell-based; conditions: human; MT-4 cells, 72 h, MTT; read-out: CC50 (cytotoxic concentration for 50% cells)
Procedure: as §1, §2, §3, §4, §5, §6, §7

HIV-1 = assay: Viral load by FDA approved Real-Time PCR test (Abbott m2000) in HIV-1 infected MT-4 cells; type: cell-based, HIV-1 subtype B; conditions: acute infected MT-4 cells with HIV-1, treated at MNC 0.01 mM
Procedure: The preparation of the MT-4 cell line and HIV-1 culture was the same as in previously described studies. Monitoring of the amount of virions during anti-viral analysis by measuring of the viral load with FDA approved test was performed as follows: The study was conducted with Real-Time polymerase chain reaction (PCR) test for in vitro quantitative assay of HIV-I with automated system Abbott Molecular's m2000, approved by the United States (US) Food and Drug Administration (FDA), and with the CE mark. Extraction of viral nucleic acid was carried out with an automatic extractor with magnetic particles—Abbott Molecular's m2000sp and Real-Time amplification; detection was performed with m2000rt. The sensitivity and range of the test was 40 (1.6 log copies/ml) to 10,000,000 (7.0 log copies/ml) copies/ml by the extraction of 1 ml of sample. The target region of the viral genome was a fragment of the integrase gene pol. The test was designed to detect HIV-1 subtypes A-H, group […] and N. In every test sample, an internal control was placed.
The study included three controls: negative, low positive, and high positive with the following result: • (i) negative control—result negative (not detected); • (ii) low positive control—result 938 copies/ml (2.97 log) control levels; and • (iii) high positive control—result 92,927 copies/ml (4.97 log) control levels. […]

[2] = 72 h, highest concentration of 100 mM, could be due to DMSO
[3] = 72 h after treatment, concentration range from 10 mM to 0.01 mM

Compound | microscopic observation of the morphology of the monolayer (MT-4 cells; [2]) | microscopic observation of the morphology of the monolayer (MT-4 cells; [3]) | MNC (maximal non-toxic concentration) (MT-4 cells; 72 h) | CC50 at 72 h [1] | Viral load (log) (HIV-1)
O=c1oc2cc(O)cc(O)c2c(O)c1-c1coc2c1c(=O)oc1cc(O)cc(O)c12 [Compound 1, 7,9-dihydroxy-3-(4,5,7-trihydroxy-2-oxo-2H-chromene-3-yl)-4H-furo[3,2-c]chromen-4-one] | some morphology changes | typical cytopathology characterizing toxic effects were not registered | 0.01 mM | 10 mM | (3.01 log)
O=c1oc2cc(O)c(O)cc2c(O)c1-c1coc2c1c(=O)oc1cc(O)c(O)cc12 [Compound 2, 7,8-dihydroxy-3-(4,6,7-trihydroxy-2-oxo-2H-chromen-3-yl)-4H-furo[3,2-c]chromen-4-one, reference compound] | some morphology changes | typical cytopathology characterizing toxic effects were not registered | 0.01 mM | 10 mM | (3.09 log)
